Data: patent publication US8410097B2 (priority 2005, dated 2013)
Like-named read-outs stand apart in the source and are kept apart here. Blank lines part the entries; values can stand above or below the molecule they belong to.

Tests used:
CB1 cannabinoid receptor = molecular target: T1, CB1 cannabinoid receptor (Rattus norvegicus, UniProt P20272); assay: biochemical; assay type: binding; conditions: for Ki: rat forebrain membranes; for Selectivity CB1: CB1 over CB2 binding selectivity (ratio of Ki)
T1 construct: membranes were prepared from rat forebrain membranes; from tissue; host or cells: rat forebrain membranes
Method: Some of the inventive analogs were tested for CB2 receptor binding affinity and for CB1 receptor affinity (to determine selectivity). […] The lower the Ki value the higher the binding affinity. […]
Membranes, previously frozen at −80° C., were thawed on ice. To the stirred suspension was added three volumes of TME (25 mM Tris-HCl buffer, 5 mM MgCl2 and 1 mM EDTA) at a pH 7.4. The suspension was incubated at 4° C. for 30 min. At the end of the incubation, the membranes were pelleted and washed three times with TME.
(§1) The treated membranes were subsequently used in the binding assay described below. Approximately 30 μg of membranes were incubated in silanized 96-well microtiter plate with TME containing 0.1% essentially fatty acid-free bovine serum albumin (BSA), 0.8 nM [^3H] […] Radioactivity was detected using MicroScint 20 scintillation cocktail added directly to the dried filterplates, and the filterplates were counted using a Packard Instruments Top-Count. […] Data collected from three independent experiments performed with duplicate determinations was normalized between 100% and 0% specific binding for [^3H] […] The normalized data was analyzed using a 4-parameter nonlinear logistic equation to yield IC50 values.

CB2 cannabinoid receptor = CB2 cannabinoid receptor (Mus musculus, UniProt P47936); assay: biochemical; assay type: binding; conditions: mouse spleen membranes
Method: Some of the inventive analogs were tested for CB2 receptor binding affinity and for CB1 receptor affinity (to determine selectivity). […] The lower the Ki value the higher the binding affinity.
as §1
Silanized centrifuge tubes were used throughout to minimize receptor loss due to adsorption. The CB2 binding assay was conducted in the same manner as for the CB1 binding assay. The binding affinities (Ki) were also expressed in nanomoles (nM).

[1] = CB1 Ki, Table 6, 0.8 nM [3H] CP-55,940
[2] = Table 6, [3H] CP-55,940, read-out: CB2 Ki
[3] = Receptor Affinities Ki (nM) CB1, Table 9
[4] = Table 9, read-out: Receptor Affinities Ki (nM) CB2
[5] = Table 6, 0.8 nM [3H] CP-55,940, read-out: CB1 Ki
[6] = CB2 Ki, Table 6, [3H] CP-55,940
[7] = Receptor Affinities Ki (nM) CB1, Table 10
[8] = Table 10, read-out: Receptor Affinities Ki (nM) CB2
[9] = Receptor Affinities Ki (nM) CB1, Table 8
[10] = Table 8, read-out: Receptor Affinities Ki (nM) CB2

Chain of CB2 cannabinoid receptor (P47936 whole entry): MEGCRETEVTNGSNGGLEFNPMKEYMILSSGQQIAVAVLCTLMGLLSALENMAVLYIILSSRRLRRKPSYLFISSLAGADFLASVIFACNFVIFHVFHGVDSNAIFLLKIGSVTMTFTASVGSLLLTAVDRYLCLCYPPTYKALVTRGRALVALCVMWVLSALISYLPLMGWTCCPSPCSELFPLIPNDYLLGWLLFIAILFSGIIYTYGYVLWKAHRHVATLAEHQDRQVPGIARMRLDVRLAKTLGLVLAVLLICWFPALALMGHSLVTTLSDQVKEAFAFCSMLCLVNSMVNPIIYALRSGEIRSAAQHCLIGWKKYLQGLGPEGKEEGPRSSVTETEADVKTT
T1 sequence (P20272 whole entry): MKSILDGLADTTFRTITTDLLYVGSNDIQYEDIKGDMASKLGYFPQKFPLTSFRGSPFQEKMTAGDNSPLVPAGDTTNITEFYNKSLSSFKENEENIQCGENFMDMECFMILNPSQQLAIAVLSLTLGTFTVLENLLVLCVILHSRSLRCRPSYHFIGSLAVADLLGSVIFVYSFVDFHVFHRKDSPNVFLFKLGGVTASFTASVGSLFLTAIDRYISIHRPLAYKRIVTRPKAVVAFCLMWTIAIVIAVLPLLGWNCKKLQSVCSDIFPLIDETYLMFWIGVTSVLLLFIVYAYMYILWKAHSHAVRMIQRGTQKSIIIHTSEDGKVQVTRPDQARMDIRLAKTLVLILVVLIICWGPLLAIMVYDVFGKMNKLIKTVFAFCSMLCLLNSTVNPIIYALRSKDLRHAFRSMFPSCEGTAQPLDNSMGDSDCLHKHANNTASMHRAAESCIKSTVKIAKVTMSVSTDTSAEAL

SMILES: O=C(Nc1nc(-c2ccc(Cl)cc2Cl)n(-c2ccc(I)cc2)c1CBr)NC1CCCCC1 [Compound 1-38]
Ki (CB1 cannabinoid receptor; [1]): 5 nM
Ki (CB2 cannabinoid receptor; [2]): 75.3 nM

SMILES: Cc1c(C(=O)N(C)C2CCCCC2)nc(-c2ccc(Cl)cc2Cl)n1-c1ccc(CCCO)cc1 [Compound 4-7]
Ki (CB1 cannabinoid receptor; [3]): 100 nM
Selectivity CB1 (CB1 cannabinoid receptor; Table 9): 3
Ki (CB2 cannabinoid receptor; [4]): 290 nM

Ki (CB1 cannabinoid receptor; [5]): 359 nM
Ki (CB2 cannabinoid receptor; [2]): 26300 nM
SMILES: Cc1c(C(=O)N(C)C2CCCCC2)nc(-c2ccc(Cl)cc2Cl)n1-c1ccc(-c2nnn[nH]2)cc1 [Compound 1-22]

SMILES: O=C(NN1CCCCC1)c1nc(-c2ccc(Cl)cc2Cl)n(-c2ccc(C#CCO)cc2)c1CO [Compound 1-34]
Ki (CB1 cannabinoid receptor; [1]): 23.2 nM
Ki (CB2 cannabinoid receptor; [6]): 5360 nM

SMILES: Cc1c(C(=O)NN2CCCCC2)nn(-c2ccc(Cl)cc2Cl)c1-c1ccc(C#CCN(C)C)cc1.Cl [Compound 5-3]
Ki (CB1 cannabinoid receptor; [7]): 30 nM
Selectivity CB1 (CB1 cannabinoid receptor; Table 10): 2.2
Ki (CB2 cannabinoid receptor; [8]): 66 nM

SMILES: Cc1c(C(=O)N(C)C2CCCCC2)nc(-c2ccc(Cl)cc2Cl)n1-c1ccc(-c2nnnn2C)cc1 [Compound 1-23]
Ki (CB1 cannabinoid receptor; [1]): 982 nM
Ki (CB2 cannabinoid receptor; [6]): 4150 nM

Ki (CB1 cannabinoid receptor; [5]): 2290 nM
Ki (CB2 cannabinoid receptor; [2]): 24500 nM
SMILES: Cc1c(C(=O)NN2CCCCC2)nc(-c2ccc(Cl)cc2Cl)n1-c1ccc(-c2nnnn2C)cc1 [Compound 1-17]

SMILES: Cc1cc(Br)ccc1-n1c(-c2ccc(Cl)cc2Cl)nc(C(=O)NN2CCCCC2)c1C [Compound 1-1]
Ki (CB1 cannabinoid receptor; [1]): 29.8 nM
Ki (CB2 cannabinoid receptor; [2]): 808 nM

SMILES: Cc1c(NC(=O)N(C)C2CCCCC2)nc(-c2ccc(Cl)cc2Cl)n1-c1ccc(Br)cc1 [Compound 1-37]
Ki (CB1 cannabinoid receptor; [1]): 14.2 nM
Ki (CB2 cannabinoid receptor; [2]): 1420 nM

SMILES: Cc1c(C(=O)NN2CCCCC2)nc(-c2ccc(Cl)cc2Cl)n1-c1ccc(-c2cccnc2)cc1 [Compound 1-14]
Ki (CB1 cannabinoid receptor; [1]): 39.8 nM
Ki (CB2 cannabinoid receptor; [2]): 3330 nM

SMILES: Cc1c(C(=O)NN2CC3CCCC3C2)nn(-c2ccc(Cl)cc2Cl)c1-c1ccc(C#CCCO)cc1 (stereo not drawn) [Compound 3-6]
Ki (CB1 cannabinoid receptor; [9]): 7 nM
Selectivity CB1 (CB1 cannabinoid receptor; Table 8): 28
Ki (CB2 cannabinoid receptor; [10]): 199 nM

SMILES: Cc1c(C(=O)NN2CCCCC2)nn(-c2ccc(Cl)cc2Cl)c1-c1ccc(CCC#N)cc1 [Compound 4-4]
Ki (CB1 cannabinoid receptor; [3]): 13 nM
Selectivity CB1 (CB1 cannabinoid receptor; Table 9): 176
Ki (CB2 cannabinoid receptor; [4]): 2290 nM

SMILES: Cc1c(C(=O)NN2CCCCC2)nn(-c2ccc(Cl)cc2Cl)c1-c1ccc(C#CCCCO)cc1 [Compound 3-5]
Ki (CB1 cannabinoid receptor; [9]): 2 nM
Selectivity CB1 (CB1 cannabinoid receptor; Table 8): 72
Ki (CB2 cannabinoid receptor; [10]): 144 nM

SMILES: CN(C(=O)c1nc(-c2ccc(Cl)cc2Cl)n(-c2ccc(I)cc2)c1CO)C1CCCCC1 [Compound 1-11]
Ki (CB1 cannabinoid receptor; [1]): 6.4 nM
Ki (CB2 cannabinoid receptor; [2]): 1150 nM

SMILES: O=C(NN1CCCCC1)c1nc(-c2ccc(Cl)cc2Cl)n(-c2ccc(I)cc2)c1CO [Compound 1-7]
Ki (CB1 cannabinoid receptor; [1]): 1.5 nM
Ki (CB2 cannabinoid receptor; [2]): 1650 nM

SMILES: Cc1c(C(=O)N2CCCCC2)nc(-c2ccc(Cl)cc2Cl)n1-c1ccc(Br)cc1 [Compound 1-13]
Ki (CB1 cannabinoid receptor; [1]): 22 nM
Ki (CB2 cannabinoid receptor; [2]): 2450 nM

Ki (CB1 cannabinoid receptor; [5]): 400 nM
Ki (CB2 cannabinoid receptor; [2]): 12300 nM
SMILES: Cn1nnnc1-c1ccc(-n2c(-c3ccc(Cl)cc3Cl)nc(C(=O)NN3CCCCC3)c2CO)cc1 [Compound 1-20]

SMILES: O=C(NN1CCCCC1)c1nn(-c2ccc(Cl)cc2Cl)c(-c2ccc(CCCCO)cc2)c1CO [Compound 4-3]
Ki (CB1 cannabinoid receptor; [3]): 31 nM
Selectivity CB1 (CB1 cannabinoid receptor; Table 9): 243
Ki (CB2 cannabinoid receptor; [4]): 7540 nM

SMILES: Cc1c(C(=O)N(C)C2CCCCC2)nc(-c2ccc(Cl)cc2Cl)n1-c1ccc(C#CCO)cc1 [Compound 3-9]
Ki (CB1 cannabinoid receptor; [9]): 27 nM
Selectivity CB1 (CB1 cannabinoid receptor; Table 8): 9
Ki (CB2 cannabinoid receptor; [10]): 257 nM

SMILES: Cc1c(C(=O)N(C)C2CCCCC2)nc(-c2ccc(Cl)cc2Cl)n1-c1ccc(C#CCN=[N+]=[N-])cc1 [Compound 3-11]
Ki (CB1 cannabinoid receptor; [9]): 1 nM
Selectivity CB1 (CB1 cannabinoid receptor; Table 8): 82
Ki (CB2 cannabinoid receptor; [10]): 82 nM

SMILES: Cc1c(C(=O)NN2CCCCC2)nc(-c2ccc(Cl)cc2Cl)n1-c1ccc(-c2nccs2)cc1 [Compound 1-28]
Ki (CB1 cannabinoid receptor; [1]): 7.7 nM
Ki (CB2 cannabinoid receptor; [2]): 656 nM

SMILES: Cc1c(C(=O)NN2CCCCC2)nc(-c2ccc(Cl)cc2Cl)n1-c1ccc(C#CCO)cc1 [Compound 1-31]
Ki (CB1 cannabinoid receptor; [1]): 18 nM
Ki (CB2 cannabinoid receptor; [2]): 1140 nM

SMILES: Cc1c(C(=O)NN2CCCCC2)nn(-c2ccc(Cl)cc2Cl)c1-c1ccc(C#CCCN)cc1 [Compound 5-13]
Ki (CB1 cannabinoid receptor; [7]): 20 nM
Selectivity CB1 (CB1 cannabinoid receptor; Table 10): 36
Ki (CB2 cannabinoid receptor; [8]): 732 nM

SMILES: O=C(NN1CCCCC1)c1nc(-c2ccc(Cl)cc2Cl)n(-c2ccc(Br)cc2)c1CO [Compound 1-4]
Ki (CB1 cannabinoid receptor; [1]): 10.8 nM
Ki (CB2 cannabinoid receptor; [6]): 319 nM
